Reference: patent US20110065753A1, “METHODS OF TREATING POXVIRAL INFECTIONS” (priority 2009, published 2011)
“And” between values parts separate entries of the source, which are not always exact repeats. Identical values can stand only once.

Columns and labels:
[1] = tested on: Vaccinia NYCBOH strain; type: cell-based; conditions: read-out: IC50, inhibition of infectivity of Vaccinia virus
[2] = Iminosugar safety study, BALB/c mice; conditions: for weight loss compared to vehicle only control: oral suspension twice a day for 7 days at 100 and 10 mg/kg
[3] = Iminosugar safety study, C57/B1/6 mice; conditions: oral suspension twice a day for 7 days at 100 and 10 mg/kg
[4] = tested on: Cowpox Brighton; type: in vivo, BALB/C mice; conditions: n=10
[5] = mouse, in vivo

Row | SMILES | IC50 [1] | weight loss compared to vehicle only control [2] | weight loss compared to vehicle only control [3] | percentage of surviving mice [4] | weight loss or adverse effects [5] | general health, clinical signs ([2]; highest concentration (100 mg/kg twice a day, 7 days), symptoms ceased when treatment was done)
1 | CCCCN1C[C@H](O)[C@@H](O)[C@H](O)[C@H]1CO [UV-1, N-Butyl deoxynojirimycin] | 90 µM | did not show any significant signs of weight loss | did not show any significant signs of weight loss |  |  | 
2 | CCCCCCCCCN1C[C@H](O)[C@@H](O)[C@H](O)[C@H]1CO [UV-2, N-Nonyl deoxynojirimycin] | 21 µM |  |  |  |  | 
3 | CCCOCCCCCCN1C[C@H](O)[C@@H](O)[C@H](O)[C@H]1CO [UV-3, N-(7-Oxadecyl)deoxynojirimycin] | 7 µM |  |  |  |  | 
4 | COCCCCCCCCCN1C[C@H](O)[C@@H](O)[C@H](O)[C@H]1CO [UV-4, N-(9-Methoxynonyl) deoxynojirimycin] | 59 µM | did not show any significant signs of weight loss | did not show any significant signs of weight loss | 100% and 70% | no weight loss or adverse effects observed | 
5 | [N-]=[N+]=Nc1ccc(NCCCCCCN2C[C@H](O)[C@@H](O)[C@H](O)[C@H]2CO)c([N+](=O)[O-])c1 [UV-5, N—(N-{4′-azido-2′-nitrophenyl}-6-aminohexyl)deoxynojirimycin] | 3 µM | did not show any significant signs of weight loss | did not show any significant signs of weight loss |  |  | signs of diarrhea, red urine, and a ruffled appearance
